In brackets after ≈: the same amount, converted by molar mass.
Tests used:
[1] = Metabolic stability in human liver microsomes assessed as intrinsic clearance at 0.5 uM incubated for 60 mins in presence of NADPH by tandem quadrupole-Time of Flight MS; assay type: ADME, Microsome; conditions: 1 h
[2] = target: T1, Dihydroorotate dehydrogenase (quinone), mitochondrial (Plasmodium falciparum (isolate 3D7), UniProt Q08210); test: Inhibition of N-terminal His6-tagged recombinant Plasmodium falciparum DHODH (158 to 569 residues) N-terminally truncated soluble domain extracted from Escherichia coli phage resistant BL21-DE3 using CoQD/DHA/DCIP as substrates
T1 sequence (Q08210 whole entry): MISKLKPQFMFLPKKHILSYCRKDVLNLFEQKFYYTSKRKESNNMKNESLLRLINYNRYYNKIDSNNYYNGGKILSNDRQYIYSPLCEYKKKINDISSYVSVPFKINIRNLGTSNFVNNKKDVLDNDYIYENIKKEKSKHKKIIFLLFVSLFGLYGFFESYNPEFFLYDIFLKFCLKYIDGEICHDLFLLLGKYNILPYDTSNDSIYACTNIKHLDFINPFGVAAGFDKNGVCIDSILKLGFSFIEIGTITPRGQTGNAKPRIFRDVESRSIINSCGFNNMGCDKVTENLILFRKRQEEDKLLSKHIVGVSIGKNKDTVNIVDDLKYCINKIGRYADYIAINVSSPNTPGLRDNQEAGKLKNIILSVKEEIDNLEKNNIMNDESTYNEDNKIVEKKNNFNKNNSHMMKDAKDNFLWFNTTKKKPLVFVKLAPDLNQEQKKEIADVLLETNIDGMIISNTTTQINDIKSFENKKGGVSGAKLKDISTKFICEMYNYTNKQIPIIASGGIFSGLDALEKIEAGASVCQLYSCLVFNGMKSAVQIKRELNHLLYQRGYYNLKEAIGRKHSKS

[3] = target: Dihydroorotate dehydrogenase (quinone), mitochondrial (Homo sapiens, UniProt Q02127); test: Inhibition of C-terminal His6-tagged recombinant human DHODH (29 to 395 residues) N-terminally truncated soluble domain extracted from Escherichia coli phage resistant BL21-DE3 using CoQD/DHA/DCIP as substrates
[4] = Kinetic solubility of compound at pH 6.5 measured after 30 mins by nephelometry; assay type: physicochemical; conditions: buffer; for Kinetic_solubility: pH 6.5, 0.5 h; for solubility kinetic at 0.5 h: pH 6.5, read-out: Kinetic_solubility
Plasmodium falciparum = test: Antiparasitic activity against asexual blood stage Plasmodium falciparum 3D7 incubated for 72 hrs by SYBR Green assay; assay type: functional, organism-based; conditions: 3D7, 72 h

Sequence of Dihydroorotate dehydrogenase (quinone), mitochondrial (Homo sapiens, UniProt Q02127) (Q02127 whole entry, the tested form may be a part): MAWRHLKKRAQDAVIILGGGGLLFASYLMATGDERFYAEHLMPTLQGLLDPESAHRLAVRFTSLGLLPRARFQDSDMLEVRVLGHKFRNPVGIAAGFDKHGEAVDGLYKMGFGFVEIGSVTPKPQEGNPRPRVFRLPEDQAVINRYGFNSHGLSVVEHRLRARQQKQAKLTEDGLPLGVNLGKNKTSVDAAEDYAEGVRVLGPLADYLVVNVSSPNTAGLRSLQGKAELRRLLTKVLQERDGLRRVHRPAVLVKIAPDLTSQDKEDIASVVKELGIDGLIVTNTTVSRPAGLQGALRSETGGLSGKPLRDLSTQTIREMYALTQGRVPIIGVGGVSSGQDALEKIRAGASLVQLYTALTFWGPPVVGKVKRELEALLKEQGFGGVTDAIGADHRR

SMILES	intrinsic clearance (CLint) [1]	IC50 [2]	IC50 [3]	Kinetic_solubility [4]	EC50 (Plasmodium falciparum)	solubility kinetic at 0.5 h [4]
CCn1cc(C2CC2)c2c([C@H](N)c3ccc(C(F)(F)F)nc3)n(C)nc2c1=O	3.8 µL/min/mg	0.18 µM	> 100 µM	> 320 µM	0.027 µM	–
CC[C@](N)(c1cnc(C(F)(F)F)c(Cl)c1)c1c2ccn(C3CC3)c(=O)c2nn1C	–	17 µM	–	–	2.3 µM	–
CCn1cc(C2CC2)c2c([C@@H](O)c3ccc(C(F)(F)F)nc3)n(C)nc2c1=O	–	–	–	–	2.1 µM	–
Cn1nc2c(=O)n(C3CC3)ccc2c1[C@](N)(c1cnc(C(F)(F)F)c(Cl)c1)C(F)(F)F	< 3 µL/min/mg	–	> 30 µM	–	0.003 µM	40 µM (≈ 18.6 µg/mL)
Cn1nc2c(=O)n(C3CC3)cnc2c1[C@](O)(c1cnc(C(F)(F)F)c(Cl)c1)C1CC1	< 3 µL/min/mg	–	> 30 µM	–	0.004 µM	80 µM (≈ 35.2 µg/mL)
CCCn1ccc2c(Cc3ccc(C(F)(F)F)nc3)n(C)nc2c1=O	–	–	–	–	14 µM	–
CCn1ccc2c([C@](O)(c3ccc(C(F)(F)F)nc3)C3CC3)n(C)nc2c1=O	< 3 µL/min/mg	–	> 100 µM	–	0.007 µM	80 µM (≈ 31.4 µg/mL)
CC[C@@](N)(c1ccc(C(F)(F)F)c(Cl)c1)c1c2cnn(C3CC3)c(=O)c2nn1C	< 3 µL/min/mg	–	–	–	0.003 µM	20 µM (≈ 8.52 µg/mL)
CCn1cc(C)c2c([C@@H](N)c3ccc(C(F)(F)F)nc3)n(C)nc2c1=O	–	1.1 µM	–	–	2.6 µM	–
CCn1cc(Cl)c2c(Cc3ccc(N4CCN(C)CC4)nc3)n(C)nc2c1=O	–	1.5 µM	–	–	2.7 µM	–
CC[C@@](O)(c1cnc(C(F)(F)F)c(Cl)c1)c1c2ncn(C3CC3)c(=O)c2nn1C	3.7 µL/min/mg	–	–	> 100 µM	0.001 µM	–
Cn1nc2c(=O)n(C3CC3)cc(Cl)c2c1Cc1ccc(C(F)(F)F)nc1	10 µL/min/mg	–	16 µM	–	0.02 µM	70 µM (≈ 26.8 µg/mL)
CCn1cc(C2CC2)c2c(CN3CCCC(F)(F)C3)n(C)nc2c1=O	26 µL/min/mg	–	–	–	0.093 µM	80 µM (≈ 28 µg/mL)
CC[C@@](O)(c1ccc(C(F)(F)F)nc1)c1c2ccn(C3CC3)c(=O)c2nn1C	< 3 µL/min/mg	–	5 µM	–	0.003 µM	40 µM (≈ 15.7 µg/mL)
CC[C@@](O)(c1cc(F)c(F)c(F)c1)c1c2ccn(C3CC3)c(=O)c2nn1C	6 µL/min/mg	–	2.1 µM	–	0.001 µM	50 µM (≈ 18.9 µg/mL)
Cn1nc2c(=O)n(C3CC3)ccc2c1Cc1ccc(C(F)(F)F)nc1	–	0.91 µM	> 100 µM	–	0.59 µM	–
CC[C@@](O)(c1ccc(C(F)(F)F)c(Cl)c1)c1c2cnn(C3CC3)c(=O)c2nn1C	< 3 µL/min/mg	0.006 µM	–	–	–	6.25 µM (≈ 2.67 µg/mL)
CC[C@](O)(c1cnc(C(F)(F)F)c(Cl)c1)c1c2cnn(C3CC3)c(=O)c2nn1C	–	–	–	–	1.7 µM	–
CC[C@](N)(c1cnc(C(F)(F)F)c(Cl)c1)c1c2ncn(C3CC3)c(=O)c2nn1C	–	4.2 µM	–	–	0.98 µM	–
CCn1cc(C)c2c([C@@H](O)c3ccc(C(F)(F)F)nc3)n(C)nc2c1=O	–	0.28 µM	–	–	0.22 µM	–
Cn1nc2c(=O)n(C3CC3)ccc2c1[C@](O)(c1ccc(C(F)(F)F)nc1)C(F)(F)F	< 3 µL/min/mg	–	> 30 µM	–	0.002 µM	50 µM (≈ 21.6 µg/mL)
CCn1cc(C2CC2)c2c([C@H](O)c3cnc(C(F)(F)F)c(Cl)c3)n(C)nc2c1=O	6 µL/min/mg	–	> 100 µM	–	0.005 µM	80 µM (≈ 34.1 µg/mL)
Cn1nc2c(=O)n(C3CC3)ncc2c1[C@](O)(c1ccc(C(F)(F)F)c(Cl)c1)C1CC1	< 3 µL/min/mg	–	> 30 µM	< 5 µM	0.002 µM	–
Cn1nc2c(=O)n(C3CC3)ncc2c1[C@](O)(c1cnc(C(F)(F)F)c(Cl)c1)C1CC1	5.4 µL/min/mg	–	> 30 µM	–	0.015 µM	20 µM (≈ 8.8 µg/mL)

SMILES	intrinsic clearance (CLint) [1]	IC50 [2]	IC50 [3]	Kinetic_solubility [4]	EC50 (Plasmodium falciparum)	solubility kinetic at 0.5 h [4]
CCn1ccc2c([C@@](O)(CC)c3cnc(C(F)(F)F)c(Cl)c3)n(C)nc2c1=O	9.3 µL/min/mg	0.027 µM	–	–	–	40 µM (≈ 16.6 µg/mL)
CCn1ccc2c([C@](C)(O)c3cnc(C(F)(F)F)c(Cl)c3)n(C)nc2c1=O	25 µL/min/mg	–	> 100 µM	–	0.001 µM	80 µM (≈ 32.1 µg/mL)
Cn1nc2c(=O)n(C3CC3)cnc2c1[C@](O)(c1ccc(C(F)(F)F)c(C#N)c1)C(F)(F)F	< 3 µL/min/mg	0.014 µM	18 µM	–	–	40 µM (≈ 18.3 µg/mL)
Cc1cc(Nc2ccc(S(F)(F)(F)(F)F)cc2)n2nc(C(C)(F)F)nc2n1 [DSM-265]	–	–	–	–	0.007 µM	–
CC[C@](O)(c1cnc(C(F)(F)F)c(Cl)c1)c1c2ccn(C3CC3)c(=O)c2nn1C	–	14 µM	–	–	0.44 µM	–
CCn1cc(C2CC2)c2c(CN3CCC(C)(F)CC3)n(C)nc2c1=O	18 µL/min/mg	–	> 30 µM	> 100 µM	0.018 µM	–
CCn1cc(C2CC2)c2c(CN3CCC(F)(F)CC3)n(C)nc2c1=O	20 µL/min/mg	–	> 100 µM	–	0.3 µM	50 µM (≈ 17.5 µg/mL)
Cn1nc2c(=O)n(C3CC3)ccc2c1[C@](O)(c1ccc(F)c(Cl)c1)C(F)(F)F	< 3 µL/min/mg	–	8.5 µM	–	0.001 µM	20 µM (≈ 8.32 µg/mL)
CCn1cc(C2CC2)c2c([C@H](O)c3ccc(C(F)(F)F)nc3)n(C)nc2c1=O	15 µL/min/mg	–	> 100 µM	–	0.008 µM	160 µM (≈ 62.8 µg/mL)
CC[C@@](N)(c1ccc(C(F)(F)F)c(Cl)c1)c1c2ncn(C3CC3)c(=O)c2nn1C	< 3 µL/min/mg	0.009 µM	–	> 100 µM	0.001 µM	–
CCn1cc(C2CC2)c2c(Cc3cnc(C(F)(F)F)c(C)c3)n(C)nc2c1=O	24 µL/min/mg	–	67 µM	–	0.004 µM	50 µM (≈ 19.5 µg/mL)
Cn1nc2c(=O)n(C3CC3)ccc2c1[C@](O)(c1ccc(C(F)(F)F)c(Cl)c1)C(F)(F)F	< 3 µL/min/mg	–	4.3 µM	–	–	5 µM (≈ 2.33 µg/mL)
CCn1cc(C)c2c([C@H](O)c3cnc(C(F)(F)F)c(Cl)c3)n(C)nc2c1=O	3.2 µL/min/mg	–	> 100 µM	–	0.011 µM	160 µM (≈ 64.1 µg/mL)
Cn1nc2c(=O)n(C3CC3)ncc2c1[C@@](O)(c1cnc(C(F)(F)F)c(Cl)c1)C(F)(F)F	–	–	–	–	0.7 µM	–
CC(C)n1ccc2c(Cc3ccc(C(F)(F)F)nc3)n(C)nc2c1=O	–	14 µM	> 100 µM	–	6.6 µM	–
CCn1cc(C2CC2)c2c(Cc3cnc(C(F)(F)F)c(Cl)c3)n(C)nc2c1=O	28 µL/min/mg	–	60 µM	–	0.035 µM	50 µM (≈ 20.5 µg/mL)
CC[C@@](O)(c1cc(F)c(Cl)c(F)c1)c1c2ccn(C3CC3)c(=O)c2nn1C	3.2 µL/min/mg	–	–	–	0.001 µM	50 µM (≈ 19.7 µg/mL)
Cn1nc2c(=O)n(C3CC3)ncc2c1[C@](O)(c1ccc(C(F)(F)F)c(Cl)c1)C(F)(F)F	< 3 µL/min/mg	0.009 µM	22 µM	–	–	5 µM (≈ 2.33 µg/mL)
Cn1nc2c(=O)n(C3CC3)ccc2c1[C@@](O)(c1cnc(C(F)(F)F)c(Cl)c1)C(F)(F)F	–	–	–	–	0.41 µM	–
Cn1nc2c(=O)n(C3CC3)ccc2c1[C@](C)(O)c1cnc(C(F)(F)F)c(Cl)c1	6.8 µL/min/mg	–	> 30 µM	–	0.001 µM	80 µM (≈ 33 µg/mL)
CCn1cc(C2CC2)c2c(CN3CCC(F)(F)CC3(C)C)n(C)nc2c1=O	74 µL/min/mg	–	57 µM	–	0.035 µM	40 µM (≈ 15.1 µg/mL)
Cn1nc2c(=O)n(CCC3CC3)ccc2c1Cc1ccc(C(F)(F)F)nc1	–	> 100 µM	–	–	14 µM	–
Cn1nc2c(=O)n(C3CC3)cnc2c1[C@@](O)(c1cnc(C(F)(F)F)c(Cl)c1)C(F)(F)F	–	4.5 µM	–	–	0.55 µM	–
Cn1nc2c(=O)n(C)ccc2c1Cc1ccc(C(F)(F)F)nc1	–	4.5 µM	–	–	6 µM	–

Source: ChEMBL document CHEMBL6087456 (J Med Chem, 2025)
